Reference: patent US5061794A, “Cephalosporin derivatives, and antibacterial agents” (priority 1986, dated 1991)
In brackets after ≈: the same amount, converted by molar mass. Read-outs that look alike come from different tables or passages of the source.

How the values were obtained:
E. coli CSH2 (RK1) = assay: microbe, parasite or virus in culture; format: cell-based; settings: *E. coli CSH2 (RK1), lactamase-producing strain; 10^6 CFU/ml
Procedure, shortened: (§1)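 Inoculum 10^6 CFU/ml; medium Mueller Hinton agar with graded antibiotic; 37° C./16 h; endpoint MIC (μg/ml).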

E. coli CSH(RE45) = assay: microbe, parasite or virus in culture; format: cell-based; settings: *E. coli CSH(RE45), lactamase-producing strain; 10^6 CFU/ml
Procedure, shortened: as §1

K. pneumoniae PCI-602 = assay: in vitro antibacterial activity, agar plate dilution method (MIC); format: cell-based; settings: 10^6 CFU/ml; for MIC: Klebsiella pneumoniae, PCI602, 16 h
Procedure, shortened: as §1

E. cloacae Nek 39 = assay: as above; format: cell-based; settings: 10^6 CFU/ml; for Minimum Inhibitory Concentration (MIC): *E. cloacae Nek 39, lactamase-producing strain
Procedure, shortened: as §1

M. morganii GN5407 = assay: as above; format: cell-based; settings: *M. morganii GN5407, lactamase-producing strain; 10^6 CFU/ml
Procedure, shortened: as §1

E. cloacae 963 = assay: as above; format: cell-based; settings: 10^6 CFU/ml
Procedure, shortened: as §1

K. oxytoca GN10650 = assay: as above; format: cell-based; settings: *K. oxytoca GN10650, lactamase-producing strain; 10^6 CFU/ml
Procedure, shortened: as §1

E. coli GN5482 = assay: as above; format: cell-based; settings: for Minimum Inhibitory Concentration (MIC): *E. coli GN5482, lactamase-producing strain; for MIC: Escherichia coli, GN5482, 16 h
Procedure, shortened: as §1

S. marcescens IAM 1184 = assay: as above; format: cell-based; settings: for MIC: Serratia marcescens, IAM1184, 16 h, read-out: Minimum Inhibitory Concentration (MIC)
Procedure, shortened: as §1

K. pneumoniae No. 42 = assay: as above; format: cell-based; settings: *K. pneumoniae No. 42, lactamase-producing strain; 10^6 CFU/ml
Procedure, shortened: as §1

P. vulgaris No. 33 = assay: as above; format: cell-based; settings: *P. vulgaris No. 33, lactamase-producing strain; 10^6 CFU/ml
Procedure, shortened: as §1

S. aureus 209P NIHJ-JC1 = assay: as above; format: cell-based; settings: S. aureus 209P NIHJ-JC1, 10^6 CFU/ml, 37° C., 16 hours
Procedure, shortened: as §1

E. coli NIHJ JC2 = assay: as above; format: cell-based; settings: for Minimum Inhibitory Concentration (MIC): E. coli NIHJ JC2, 10^6 CFU/ml, 37° C., 16 hours
Procedure, shortened: as §1

P. vulgaris HX-19 = assay: as above; format: cell-based; settings: P. vulgaris HX-19, 10^6 CFU/ml
Procedure, shortened: as §1

S. marcescens No. 16-2 = assay: as above; format: cell-based; settings: for Minimum Inhibitory Concentration (MIC): *S. marcescens No. 16-2, lactamase-producing strain; for MIC: Serratia marcescens, NO.162, 16 h
Procedure, shortened: as §1

A. calcoaceticus No. 4 = assay: as above; format: cell-based, Acinetobacter calcoaceticus; settings: 10^6 CFU/ml; for Minimum Inhibitory Concentration (MIC): A. calcoaceticus No. 4
Procedure, shortened: as §1

Ps. cepacia 23 = assay: as above; format: cell-based, Pseudomonas cepacia; settings: Ps. cepacia 23, 10^6 CFU/ml; for MIC: Burkholderia cepacia, 16 h, read-out: Minimum Inhibitory Concentration (MIC)
Procedure, shortened: as §1

Ps. aeruginosa AK 109 = assay: as above; format: cell-based, Pseudomonas aeruginosa; settings: for Minimum Inhibitory Concentration (MIC): Ps. aeruginosa AK 109, 10^6 CFU/ml; for MIC: Pseudomonas aeruginosa, AK109, 16 h, read-out: Minimum Inhibitory Concentration (MIC)
Procedure, shortened: as §1

Ps. aeruginosa IF03445 = assay: as above; format: cell-based, Pseudomonas aeruginosa; settings: 10^6 CFU/ml; for Minimum Inhibitory Concentration (MIC): Ps. aeruginosa IF03445
Procedure, shortened: as §1

Ps. aeruginosa AKR17 = assay: as above; format: cell-based, Pseudomonas aeruginosa; settings: for MIC: Pseudomonas aeruginosa, AKR17, 16 h; for Minimum Inhibitory Concentration (MIC): Ps. aeruginosa AKR17
Procedure, shortened: as §1

[1] = Enterobacter cloacae, 16 h, E. cloacae 963, read-out: Minimum Inhibitory Concentration (MIC)
[2] = S. marcescens IAM 1184, 10^6 CFU/ml
[3] = Enterobacter cloacae, 963, 16 h, read-out: Minimum Inhibitory Concentration (MIC), E. cloacae 963
[4] = read-out: Minimum Inhibitory Concentration (MIC)

Compound | Minimum Inhibitory Concentration (MIC) (E. coli CSH2 (RK1)) [µg/mL] | Minimum Inhibitory Concentration (MIC) (E. coli CSH(RE45)) [µg/mL] | Minimum Inhibitory Concentration (MIC) (K. pneumoniae PCI-602; K. pneumoniae PCI-602) [ng/mL] | Minimum Inhibitory Concentration (MIC) (E. cloacae Nek 39) [µg/mL] | Minimum Inhibitory Concentration (MIC) (M. morganii GN5407) [µg/mL] | MIC (E. cloacae 963; [1]) [µg/mL] | Minimum Inhibitory Concentration (MIC) (K. oxytoca GN10650) [µg/mL] | Minimum Inhibitory Concentration (MIC) (E. coli GN5482; 10^6 CFU/ml) [µg/mL] | Minimum Inhibitory Concentration (MIC) (S. marcescens IAM 1184; [2]) [µg/mL] | Minimum Inhibitory Concentration (MIC) (K. pneumoniae No. 42) [µg/mL] | Minimum Inhibitory Concentration (MIC) (P. vulgaris No. 33) [µg/mL] | Minimum Inhibitory Concentration (MIC) (S. aureus 209P NIHJ-JC1) [µg/mL] | Minimum Inhibitory Concentration (MIC) (E. coli NIHJ JC2) [µg/mL] | Minimum Inhibitory Concentration (MIC) (S. marcescens No. 16-2; 10^6 CFU/ml) [µg/mL] | Minimum Inhibitory Concentration (MIC) (A. calcoaceticus No. 4) [µg/mL] | Minimum Inhibitory Concentration (MIC) (Ps. cepacia 23) [ng/mL] | Minimum Inhibitory Concentration (MIC) (Ps. aeruginosa AK 109) [µg/mL] | Minimum Inhibitory Concentration (MIC) (Ps. aeruginosa IF03445) [µg/mL] | MIC (S. marcescens IAM 1184; [2]) [µg/mL] | Minimum Inhibitory Concentration (MIC) (P. vulgaris HX-19) [µg/mL] | other results
Nc1nc(C(=NOC(C(=O)O)c2ccc(O)c(O)c2)C(=O)NC2C(=O)N3C(C(=O)O)=C(CSc4nnc(-c5ccc(O)c(O)c5)s4)CSC23)cs1 (single isomer, unassigned) [Example 38 DB, disodium 7β-{2-(2-aminothiazol-4-yl)-2-(α-carboxylate-3,4-dihydroxybenzyloxyimino)acetamido]-3-[5-(3,4-dihydroxyphenyl)-1,3,4-thiadiazol-2-yl]thiomethyl-3-cephem-4-carboxylate] | 0.025 | 0.0125 | < 6 | 0.39 | 0.2 | 0.2 | 0.1 | 0.78 | 0.1 | 0.1 | 0.1 | 1.56 | 0.78 | 6.25 | 0.05 | < 6 | 0.78 | 3.12 | – | – | MIC (P. vulgaris HX-19; Proteus vulgaris, HX19, 16 h, read-out: Minimum Inhibitory Concentration (MIC)): 0.025 µg/mL; MIC (Ps. aeruginosa AKR17; read-out: Minimum Inhibitory Concentration (MIC), Ps. aeruginosa AKR17, 10^6 CFU/ml): 1.56 µg/mL
Nc1nc(C(=NOC(C(=O)O)c2ccccc2)C(=O)NC2C(=O)N3C(C(=O)O)=C(CSc4nc(C(=O)O)c(-c5ccc(O)c(O)c5)s4)CSC23)cs1 (single isomer, unassigned) [Example 51 DA] | 0.05 | 0.1 | 12.5 | – | 0.2 | 0.2 (≈ 0.255 µM) | 0.1 | – | – | 0.2 | 0.39 | 100 | 3.12 | – | – | – | 1.56 | 1.56 | 0.1 (≈ 0.127 µM) | 0.2 | MIC (E. cloacae Nek 39; Enterobacter cloacae, NEK39, 16 h, read-out: Minimum Inhibitory Concentration (MIC), *E. cloacae Nek 39, lactamase-producing strain): 0.1 µg/mL (≈ 0.127 µM); MIC (E. coli GN5482; read-out: Minimum Inhibitory Concentration (MIC), *E. coli GN5482, lactamase-producing strain, 10^6 CFU/ml): 1.56 µg/mL (≈ 1.99 µM); MIC (S. marcescens No. 16-2; read-out: Minimum Inhibitory Concentration (MIC), *S. marcescens No. 16-2, lactamase-producing strain, 10^6 CFU/ml): 1.56 µg/mL (≈ 1.99 µM); MIC (A. calcoaceticus No. 4; Acinetobacter calcoaceticus, NO.4, 16 h, read-out: Minimum Inhibitory Concentration (MIC), A. calcoaceticus No. 4): 0.1 µg/mL (≈ 0.127 µM); MIC (Ps. cepacia 23): < 6 ng/mL; Minimum Inhibitory Concentration (MIC) (Ps. aeruginosa AKR17; 10^6 CFU/ml): 1.56 µg/mL
Nc1nc(C(=NOC(C(=O)O)c2ccccc2)C(=O)NC2C(=O)N3C(C(=O)O)=C(CSc4nc(C(=O)O)c(-c5ccc(O)c(O)c5)s4)CSC23)cs1 (single isomer, unassigned) [Example 51 DB] | 0.0125 | 0.0125 | < 6 | 0.05 | 0.05 | – | 0.025 | 0.78 | 0.05 | 0.05 | 0.0125 | 25 | 0.39 | 0.78 | 0.1 | < 6 | – | – | – | < 0.006 | MIC (E. cloacae 963; [3]): 0.05 µg/mL (≈ 0.0637 µM); MIC (Ps. aeruginosa AK 109): 0.39 µg/mL (≈ 0.497 µM); MIC (Ps. aeruginosa IF03445; Pseudomonas aeruginosa, IF03445, 16 h, read-out: Minimum Inhibitory Concentration (MIC), Ps. aeruginosa IF03445): 0.39 µg/mL (≈ 0.497 µM); MIC (Ps. aeruginosa AKR17; [4]): 0.39 µg/mL (≈ 0.497 µM)
CC(=O)Oc1ccc(-c2nc(SCC3=C(C(=O)O)N4C(=O)C(NC(=O)C(=NOC(C(=O)O)c5ccccc5)c5csc(N)n5)C4SC3)sc2CC(=O)O)cc1OC(C)=O (single isomer, unassigned) [Example 61 DA] | 0.0125 | 3.12 | – | 0.1 | 0.05 | – | 0.05 | – | – | 0.1 | 0.025 | – | 0.78 | 0.78 | 0.1 | – | – | 0.39 | 0.05 (≈ 0.0566 µM) | < 0.006 | MIC (K. pneumoniae PCI-602; read-out: Minimum Inhibitory Concentration (MIC), K. pneumoniae PCI-602): < 0.006 µg/mL; MIC (E. cloacae 963; [3]): 0.39 µg/mL (≈ 0.442 µM); MIC (E. coli GN5482; [4]): 0.39 µg/mL (≈ 0.442 µM); MIC (S. aureus 209P NIHJ-JC1; Staphylococcus aureus, 16 h, read-out: Minimum Inhibitory Concentration (MIC)): 25 µg/mL (≈ 28.3 µM); MIC (Ps. cepacia 23): < 6 ng/mL; MIC (Ps. aeruginosa AK 109): 0.39 µg/mL (≈ 0.442 µM); MIC (Ps. aeruginosa AKR17; [4]): 0.39 µg/mL (≈ 0.442 µM)
CC(=O)Oc1ccc(-c2nc(SCC3=C(C(=O)O)N4C(=O)C(NC(=O)C(=NOC(C(=O)O)c5ccccc5)c5csc(N)n5)C4SC3)sc2CC(=O)O)cc1OC(C)=O (single isomer, unassigned) [Example 61 DB] | 0.05 | 12.5 | – | 0.39 | 0.39 | – | 0.2 | 1.56 | – | 0.39 | 0.2 | 50 | – | – | 0.39 | < 6 | 1.56 | 3.12 | – | 0.05 | MIC (K. pneumoniae PCI-602; K. pneumoniae PCI-602, read-out: Minimum Inhibitory Concentration (MIC)): 0.025 µg/mL (≈ 0.0283 µM); Minimum Inhibitory Concentration (MIC) (E. cloacae 963; E. cloacae 963): 0.78 µg/mL; MIC (S. marcescens IAM 1184): 0.39 µg/mL (≈ 0.442 µM); MIC (E. coli NIHJ JC2; Escherichia coli, NIHJJC2, 16 h, read-out: Minimum Inhibitory Concentration (MIC), E. coli NIHJ JC2, 10^6 CFU/ml, 37° C.): 3.12 µg/mL (≈ 3.53 µM); MIC (S. marcescens No. 16-2; [4]): 3.12 µg/mL (≈ 3.53 µM); Minimum Inhibitory Concentration (MIC) (Ps. aeruginosa AKR17; 10^6 CFU/ml): 0.78 µg/mL
